# From patent US12458630B2, “Combination therapy for cancer” (The Regents of the University of California, priority 2020, dated 2025)
# “Also recorded” adds a separate entry of the source.
# Key:
# KC6141 cells [1] = assay: L-Amino acid assay; type: cell-based, mouse; settings: KC6141 cells on ECM, 0.5 mM glucose, 24 hrs
# Protocol: (§1) Extracellular Matrix (ECM) Preparation. Skin fibroblasts were seeded on 6/12/96-well plates. One day after plating, cells were switched into DMEM (with pyruvate) with 10% dialysed FBS supplemented with or without 500 μM ^3H-proline and 100 μM Vitamin C. Cells were cultured for 6 days with media renewal every 24 h. After six days, skin fibroblasts were removed by washing in 1 ml or 500 μl or 100 μl per well PBS with 0.5% (v/v) Triton X-100 and 20 mM NH4OH. ECM was washed five times with PBS before plating KC6141 cells. The following day, KC6141 cells were switched into the indicated medium for 24 or 72 hrs.
# L-Amino Acid Assay. Total amount of free L-amino acids (except for glycine) were measured by L-Amino Acid Assay Kit (Colorimetric) (antibodies) according to manufacturer's protocol. Briefly, KC6141 cells were grown on 6-well plates coated with or without ECM and treated as above. The cells were resuspended at 10^6 cells/mL 1× Assay Buffer and were homogenized on ice and then centrifuged to remove debris. 50 μL of each L-Alanine standard or cell lysis was added into wells of a 96-well microtiter plate. Then 50 μL of Reaction Mix was added to each well. The well contents were mixed thoroughly and incubated for 90 minutes at 37° C. protected from light. The plate was read with a spectrophotometric microplate reader in the 540-570 nm range. The concentration of L-Amino Acids was calculated within samples by comparing the sample OD to the standard curve.
# KC6141 mouse PDAC cells = assay: Cell viability assay (CCK-8); type: cell-based; settings: WT and IKKα KD 6141 cells on ECM, 0.5 mM glucose, 3 days; EIPA, IPI549 600 nM, MBQ-167 500 nM
# Protocol: as §1
# (§2) Cell viability assay. Cell viability was determined with Cell Counting Kit-8 assay (CCK-8 assay kit, Glpbio). Cells were plated in 96-well plates at a density of 3000 cells (MIA PaCa-2) or 1500 cells (KC6141) per well and incubated overnight prior to treatment. EIPA (10 μM), MRT68921 (600 nM) or erlotinib (2 μM, Sigma) were added to the wells for 72 and 96 hrs. Next, 10 μL of CCK-8 was added to each well. The optical density was read at 450 nm using a microplate reader (FilterMax F5, Molecular Devices, USA) at day 0, 1, 2, 3, and 4. For glutamine-deprivation assays, cells in 96-well plates were rinsed briefly in PBS and incubated in the 0.2 mM glutamine. Glutamine-free DMEM medium was supplemented with 0.2 mM glutamine in the presence of 10% dialysed FBS and 25 mM HEPES. For some conditions, the medium was supplemented with a final concentration of 2% BSA (Fraction V, fatty-acid-, nuclease and protease-free, Calbiochem). For all experiments, media were replaced every 24 hrs. Viable cell counts were obtained using CCK-8 assay described as above.
# (§3) In some embodiments, cells were plated in 96-well plates coated with or without ECM at a density of 3000 cells (MIA PaCa-2, 1444, 1305, COLO 357/FG) or 1500 cells (KC6141) per well and incubated overnight prior to treatment. EIPA (10.5 μM), IPI549 (600 nM), MBQ-167 (500 nM), MRT68921 (600 nM) or erlotinib (2 μM, Sigma), ML385 (10 μM, Sigma), HCQ (10 μM or 80 μM) or their combinations were added to the wells for 24, 72 or 96 hrs. Next, 10 μL of CCK-8 was added to each well. The optical density was read at 450 nm using a microplate reader (FilterMax F5, Molecular Devices, USA) at day 0, 1, 2, 3, and 4. For glutamine-deprivation assays, cells in 96-well plates were rinsed briefly in PBS and incubated in the 0.2 mM glutamine. Glutamine-free DMEM medium was supplemented with 0.2 mM glutamine in the presence of 10% dialyzed FBS and 25 mM HEPES. For glucose-deprivation assays, cells in 96-well plates were rinsed briefly in PBS and incubated in the 0.5 mM glucose. Glucose-free DMEM medium was supplemented with 0.5 mM glucose in the presence of 10% dialyzed FBS and 25 mM HEPES. For some conditions, the medium was supplemented with a final concentration of 2% BSA (Fraction V, fatty-acid-, nuclease and protease-free, Calbiochem). For all experiments, media were replaced every 24 hrs. Viable cell counts were obtained using CCK-8 assay described as above.
# KC6141 cells [2] = assay: Luminescence ATP detection assay; type: cell-based, mouse; settings: KC6141 cells on ECM, 0.5 mM glucose, 24 hrs; EIPA 10.5 μM, MBQ-167 500 nM, MRT68921 600 nM
# Protocol: as §1
# Luminescence ATP Detection Assay. Intracellular ATP level was determined with luminescence ATP detection assay system (PerkinElmer) according to manufacturer's protocol. Briefly, KC6141 cells were grown on 96-well plates coated with or without ECM in the presence of 100 μl 0.5 mM glucose medium with or without EIPA (10.5 μM), MBQ-167 (500 nM), MRT68921 (600 nM) or their combinations for 24 hrs. 50 μl mammalian cell lysis solution was added and shaken for 5 minutes. Next, 50 μl substrate solution was added and shaken for five minutes. Finally, plate was adapted in dark for 10 minutes and luminescence was measured.
# MIA PaCa-2 cells [3] = assay: Immunoblot of p62 and LC3 (autophagic degradation); type: cell-based, human
# Protocol: Autophagy Induction. […] For starvation, cells were incubated in starvation medium (20 mM HEPES pH 7.4, 140 mM NaCl, 1 mM CaC2, 1 mM MgCl2, and 1% BSA) for 1.5 or 2 hrs. For glucose starvation, cells were washed three times with PBS and incubated in glucose-free DMEM containing 10% dialyzed FBS for 4 hrs. Immunoblot and immunoprecipitation. Cells were harvested and lysed in RIPA buffer (50 mM Tris-HCl, pH 7.4, 150 mM NaCl, 1% Triton X-100, 1% Na deoxycholate, 0.1% SDS, 1 mM EDTA) supplemented with complete protease inhibitor cocktail. Proteins were resolved on SDS-polyacrylamide gels, and then transferred to a polyvinylidene difluoride membrane. After blocking with 5% (w/v) fat free milk, the membrane was stained with the corresponding primary antibodies followed by incubation with the appropriate secondary HRP-conjugated antibodies, and development with ECL. Immunoreactive bands were detected by automatic X-ray film processor or KwikQuant Imager.
# COLO 357/FG cells = assay: LC3 puncta and p62/LC3 immunoblot; type: cell-based, human; settings: IKKα^low COLO 357/FG cells, normal or starvation medium 2 hrs, +/- CQ
# Protocol: Autophagy Induction. […] For starvation, cells were incubated in starvation medium (20 mM HEPES pH 7.4, 140 mM NaCl, 1 mM CaC2, 1 mM MgCl2, and 1% BSA) for 1.5 or 2 hrs. For glucose starvation, cells were washed three times with PBS and incubated in glucose-free DMEM containing 10% dialyzed FBS for 4 hrs.
# Immunoblot and immunoprecipitation. Cells were harvested and lysed in RIPA buffer (50 mM Tris-HCl, pH 7.4, 150 mM NaCl, 1% Triton X-100, 1% Na deoxycholate, 0.1% SDS, 1 mM EDTA) supplemented with complete protease inhibitor cocktail. Proteins were resolved on SDS-polyacrylamide gels, and then transferred to a polyvinylidene difluoride membrane. After blocking with 5% (w/v) fat free milk, the membrane was stained with the corresponding primary antibodies followed by incubation with the appropriate secondary HRP-conjugated antibodies, and development with ECL. Immunoreactive bands were detected by automatic X-ray film processor or KwikQuant Imager.
# Data are presented as mean±SEM.
# MIA PaCa-2 cells [4] = assay: LC3 puncta / LC3-LAMP1 immunofluorescence; type: cell-based, human; settings: MIA PaCa-2 cells, 10, 20, 40, 80 μM HCQ
# Protocol: Cell imaging. Immunostaining was performed as described^44. Cells were cultured on coverslips and fixed in 4% PFA for 10 min at room temperature. After washing twice in PBS, cells were incubated in PBS containing 10% FBS to block nonspecific sites of antibody adsorption. The cells were then incubated with the appropriate primary antibodies (diluted 1:100) and secondary antibodies (diluted 1:500) in PBS containing 10% FBS with or without 0.1% saponin. For cell macropinosome visualization, 24 hrs after seeding, the cells were serum starved for 18 hrs. Macropinosomes were marked using a high-molecular-mass (70 KD) TMR-Dextran (Invitrogen)-uptake assay, wherein TMR-DEX was added to serum-free medium at a final concentration of 1 mg/ml for 30 min at 37° C. At the end of the incubation period, the cells were rinsed five times in cold PBS and immediately fixed in 4% PFA. For tissue macropinosome visualization^45, fresh pancreata were cut into pieces with an approximate 5-mm cuboidal shape. […]
# Quantification and statistics. To quantify the number of LC3 puncta, a total of 30 cells were recorded and analyzed using the LAS X measurement program on the TCS SPE Leica. Macropinosomes were quantified by using the ‘Analyze Particles’ feature in ImageJ (National Institutes of Health). […]
# MIA PaCa-2 cells [5] = assay: TMR-DEX macropinosome uptake assay; type: cell-based, human
# Protocol: Cell imaging. Immunostaining was performed as described^44. Cells were cultured on coverslips and fixed in 4% PFA for 10 min at room temperature. After washing twice in PBS, cells were incubated in PBS containing 10% FBS to block nonspecific sites of antibody adsorption. The cells were then incubated with the appropriate primary antibodies (diluted 1:100) and secondary antibodies (diluted 1:500) in PBS containing 10% FBS with or without 0.1% saponin. For cell macropinosome visualization, 24 hrs after seeding, the cells were serum starved for 18 hrs. Macropinosomes were marked using a high-molecular-mass (70 KD) TMR-Dextran (Invitrogen)-uptake assay, wherein TMR-DEX was added to serum-free medium at a final concentration of 1 mg/ml for 30 min at 37° C. At the end of the incubation period, the cells were rinsed five times in cold PBS and immediately fixed in 4% PFA. For tissue macropinosome visualization^45, fresh pancreata were cut into pieces with an approximate 5-mm cuboidal shape. A tissue section was placed in a 24-well plate and injected 150 μL of 10 mg/ml TMR-DEX solution directly into the tissue piece. Another 250 μL of diluted TMR-DEX solution were added to the well to immerse the tissue section. The plate was incubated in the dark for 15 min at room temperature. Then the tissue section was rinsed twice in PBS before embedding in O.C.T. compound in a prelabeled cryomold. Specimens were frozen on dry ice and stored at −80° C. for further processing. Immunostaining was performed as described above. Images were captured using a TCS SPE Leica confocal microscope (Leica, Germany).
# In some embodiments, Immunostaining was performed as described (Su et al., 2017). Cells were cultured on coverslips and fixed in 4% PFA for 10 min at room temperature or methanol for 10 min at −20° C. After washing twice in PBS, cells were incubated in PBS containing 10% FBS to block nonspecific sites of antibody adsorption. The cells were then incubated with the appropriate primary antibodies (diluted 1:100) and secondary antibodies (diluted 1:500) in PBS containing 10% FBS with or without 0.1% saponin. For cell macropinosome visualization, 24 hrs after seeding, the cells were serum starved for 18 hrs. Macropinosomes were marked using a high-molecular-mass (70 KDa) TMR-DEX (Invitrogen)-uptake assay, wherein TMR-DEX was added to serum-free medium at a final concentration of 1 mg/ml for 30 min at 37° C. At the end of the incubation period, the cells were rinsed five times in cold PBS and immediately fixed in 4% PFA. For tissue macropinosome visualization (Lee et al., 2019), fresh pancreata were cut into pieces with an approximate 5-mm cuboidal shape. Tissue fragments were placed in a 24-well plate and injected with 150 μL of 10 mg/ml TMR-DEX solution. Another 250 μL of diluted TMR-DEX solution were added to the well to immerse the tissue fragment. The plate was incubated in the dark for 15 min at room temperature. Then the tissue fragments were rinsed twice in PBS before embedding in O.C.T. compound in a prelabeled cryomold. Specimens were frozen on dry ice and stored at −80° C. for further processing. Immunostaining was performed as described above. Images were captured using a TCS SPE Leica confocal microscope (Leica, Germany).
# Quantification and statistics. To quantify the number of LC3 puncta, a total of 30 cells were recorded and analyzed using the LAS X measurement program on the TCS SPE Leica. Macropinosomes were quantified by using the ‘Analyze Particles’ feature in ImageJ (National Institutes of Health). Macropinocytic uptake index was computed by determining the total macropinosome area in relation to the total cell area for each field and then by determining the average across all the fields (at least 6 fields). These measurements were done on randomly-selected fields of view. Two-tailed unpaired Student's t test was performed for statistical analysis using GraphPad Prism software. […]
# MIA PaCa-2 cells [6] = assay: Cell viability assay (CCK-8); type: cell-based, human
# Protocol: as §2, §3
compound,measurement,setting,value
CCn1c2ccccc2c2cc(-n3nncc3-c3ccccc3)ccc21 (racemic) [MBQ-167],amino acid content,KC6141 cells [1],reduced
same,cell viability enhanced by extracellular matrix (ECM),KC6141 mouse PDAC cells,suppressed
same,cellular ATP,KC6141 cells [2],reduced
"CCN(CC)CCCC(C)Nc1ccnc2cc(Cl)ccc12 (stereo not shown) [CQ, chloroquine]",p62 and LC3-II levels,"MIA PaCa-2 cells [3]; IKKα-deficient (KD) MIA PaCa-2 cells, normal or starvation medium 2 hrs, +/- CQ",did not increase p62 and LC3-II; also recorded: failed to increase p62 and LC3-II
same,"LC3 puncta, LC3 lipidation and p62 on starvation",COLO 357/FG cells,not affected
same,"LC3 puncta, LC3 lipidation and p62 on starvation",COLO 357/FG cells; listed as chloroquine,no effect
"CCN(CCO)CCCC(C)Nc1ccnc2cc(Cl)ccc12 (stereo not shown) [HCQ, hydroxychloroquine]",LC3-LAMP1 colocalization,MIA PaCa-2 cells [4],enhanced LC3-LAMP1 colocalization in a concentration-dependent manner
same,disruption of MP,"MIA PaCa-2 cells [5]; 10 μM HCQ, inferred from lack of synergy with MRT68921",barely disrupted MP
same,degradation of MP (DQ-BSA in TMR-DEX macropinosomes),"MIA PaCa-2 cells [5]; MIA PaCa-2 cells, 10, 20, 40, 80 μM HCQ","induced the degradation of MP at 10 μM, 20 μM, 40 μM, but not at 80 μM"
same,"MP (TMR-DEX and DQ-BSA co-localization, MP-related protein expression)","MIA PaCa-2 cells [5]; MIA PaCa-2 cells, 10-40 μM HCQ",stimulated MP
same,MP inhibition,"MIA PaCa-2 cells [5]; MIA PaCa-2 cells, HCQ 10-80 μM",inhibited MP only at 80 μM
same,"autophagic degradation (LC3-II, p62, lysosomal LC3 retention)","MIA PaCa-2 cells [3]; MIA PaCa-2 cells, 10-40 μM HCQ",inhibited autophagic degradation
same,synergy in growth inhibition with EIPA or ML385,MIA PaCa-2 cells [6]; HCQ 10 μM combined with EIPA or ML385,synergized
same,synergy in growth inhibition with MRT68921,MIA PaCa-2 cells [6]; HCQ 10 μM combined with MRT68921,did not synergize
same,cell growth,"MIA PaCa-2 cells [6]; WT and IKKα^Δ MIA PaCa-2 cells, 80 μM HCQ, 3 days",inhibited cell growth
same,cell viability (total viable cells relative to vehicle),"MIA PaCa-2 cells [6]; WT and IKKα^Δ MIA PaCa-2 cells, 10 or 80 μM HCQ, 3 days",suppression of cell viability
